Literature values, collected in patent publication US11779563B2, “Oral cannabinoid pharmaceutical compositions and methods of treating sleep disorders” (Curio IP, LLC, priority 2021, dated 2023).

Conditions: following smoking of the equivalent of 10-15 mg over 5-7 minutes

Question: With `CCCCCc1cc(O)c2c(c1)OC(C)(C)[C@@H]1CCC(C)=C[C@@H]21` [THC, (−)-(6aR,10aR)-6,6,9-trimethyl-3-pentyl-6a,7,8,10a-tetrahydro-6H-benzo[c]chromen-1-ol] as the compound, how does the peak plasma levels read?
Answer: Its peak plasma levels is “around 100 μg/L”.
